For one series, the target named is T1, E. coli Lgt (Escherichia coli, UniProt P60955).
T1 construct: DNA encoding full-length E. coli Lgt fused to a C-terminal Flag tag; Flag (C); made in house; host or cells: E. coli Rosetta 2(DE3) Gold cells (Agilent)
The experiment in a line: biochemical. The note with it: 3 nM Lgt-DDM, 50 μM phosphatidylglycerol, 12.5 μM Pal-IAAC, 50 mM Tris (pH 8), 0.02% DDM, 60 min at RT; luminescence; at least two independent experiments in triplicates; read-out: IC50, inhibition of Lgt biochemical activity.

The nature of a further series: in vitro. It counts as cell-based. The conditions noted are these: human, representative of three independent replicates, read-out: EC50, mammalian cytotoxicity. An excerpt: TABLE 2 Growth inhibition of a panel of bacterial strains and eukaryotic cells by G9066, G2824, globomycin, and vancomycin | column: MIC or EC50 (μM)^a / G9066; MIC or EC50 (μM)^a / G2824; MIC or EC50 (μM)^a / Globomycin; MIC or EC50 (μM)^a / Vancomycin

A further series has as its system PA14 imp4213. The experiment in a line: microbe, parasite or virus in culture. The note with it: average of two independent experiments in duplicates. It counts as cell-based, P. aeruginosa. Here is the method:
Bacterial strains and plasmids used in this study are listed in Table S1 in the supplemental material. E. coli strain CFT073 (ATCC 700928) ([62]) and MG1655 (ATCC 700926) were purchased from ATCC. Gene disruption in CFT073 was performed as previously described ([17], [63]). CFT073 Δlgt and MG1655 ΔlspA were generated using λ Red recombination ([17], [63]). Plasmids pKD46 for the λ Red recombinase ([17], [63]), pKD4 or pSim18 for the integration construction ([17], [63]), and pCP20 ([64]) for the FLP recombinase were used in this study. The 3′ primers (Table S2) used to generate the integration construct from pKD4 contain a juxtaposed ribosome binding site downstream of the kanamycin (Kan) cassette to allow for the creation of nonpolar gene deletions within operons ([63]), which is critical when generating the lgt inducible deletion strain given that the ribosomal binding site of the thyA gene downstream of lgt is within the lgt coding region. The inducible deletion strains (MG1655 Δlgt and MG1655 ΔlolCDE) in either the WT and/or Δlpp backgrounds were generated using similar methods as previously described ([17], [65]). To delete lpp in the lgt, lspA, and lolCDE inducible deletion strains, the Kan cassette was removed by transforming the FLP recombinase-expressing pCP20 plasmid followed by deletion of the lpp gene using λ Red recombinase as discussed above. Similar protocols were used to introduce the imp4213 mutant allele. The PA14 imp4213 strain was generated based on published protocols ([66][–][68]). Briefly, the lptD imp4213 mutant allele was generated by PCR amplifying PA14 genomic DNA using primer pairs PA14imp4213_up-F/PA14imp4213_up-R (upstream region) and PA14imp4213_dn-F/PA14imp4213_dn-R (downstream region) to create lptD missing amino acids 425 to 447. PCR products were combined with the PCR-amplified vector pEX18gm with primers pLMG18_GA-F/pLMG18_GA-R and assembled using Gibson assembly (NEB). The resultant suicide vector pEX18gm was confirmed by sequence analysis (ELIM Biopharm). […]
Unless stated otherwise, E. coli cells were grown in Luria-Bertani (LB) medium (0.5% yeast extract, 1% tryptone, 0.5% NaCl) at 37°C. […] Growth of MG1655 inducible deletion strains was measured by culturing in the presence of 2-fold dilutions of arabinose (starting arabinose concentrations for CFT073 and MG1655 inducible deletion strains were 4% and 0.8%, respectively). While 2% arabinose was sufficient for WT growth of MG1655 Δlgt, 4% arabinose was used for CFT073 Δlgt based on comparing its growth to that of WT CFT073 as measured by CFU. OD600 growth measurements were performed using an EnVision 2101 multilabel reader plate reader (PerkinElmer) linked with Echo liquid handler (Labcyte). […]

SMILES strings stand for the structures. Like-named read-outs stand apart in the source and are kept apart here. Where a SMILES comes first, the peptide text is derived from it. Bridges are numbered along the chain shown (N, C = ends). [ ]: non-standard residue; d: D form. Bip = N[C@@H](Cc1ccc(-c2ccccc2)cc1)C(=O)O; NMeF = CN[C@@H](Cc1ccccc1)C(=O)O

In publication PMC8316002, “Inhibition of Escherichia coli Lipoprotein Diacylglyceryl Transferase Is Insensitive to Resistance Caused by Deletion of Braun’s Lipoprotein” (Journal of Bacteriology, 2021) one finds IC50, EC50 and MIC data, which are given here for four compounds.

T1 sequence (P60955 whole entry, the tested form may be a part): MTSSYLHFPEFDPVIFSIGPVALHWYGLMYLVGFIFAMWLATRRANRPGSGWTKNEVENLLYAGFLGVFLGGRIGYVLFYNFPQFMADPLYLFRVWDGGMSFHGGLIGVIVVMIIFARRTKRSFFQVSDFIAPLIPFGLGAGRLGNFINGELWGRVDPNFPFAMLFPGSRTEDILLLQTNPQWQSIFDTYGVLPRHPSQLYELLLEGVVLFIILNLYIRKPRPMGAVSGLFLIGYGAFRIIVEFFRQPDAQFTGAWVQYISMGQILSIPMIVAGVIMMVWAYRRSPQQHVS

With `CN1C(=O)[C@H](Cc2ccc(-c3ccccc3)cc2)NC(=O)CNC(=O)[C@H](CC(=O)O)NC(=O)[C@@H](Cc2ccccc2)NC(=O)CSC[C@@H](C(=O)NCC(=O)N[C@@H](CCCCN)C(=O)N[C@@H](CCCCN)C(N)=O)NC(=O)[C@H](CCCNC(=N)N)NC(=O)[C@H](CO)NC(=O)[C@H](Cc2ccc(-c3ccccc3)cc2)NC(=O)[C@@H]1Cc1ccccc1` [G2824] ({CH2CO}-[dF]DG[Bip][NMeF][Bip]SRCGKK-NH2; thioether N-9), the IC50 (in general, the midpoint of a concentration-inhibition curve) on E. coli Lgt was determined as 180 nM. Further, the EC50 in “in vitro” (293T), in the series “in vitro” (Hela) and in the series “in vitro” (HepG2) was > 100 µM in each case. For the same compound, in the series with PA14 imp4213, the MIC is 6.3 µM.

As for `CN1C(=O)[C@H](Cc2ccc(-c3ccccc3)cc2)NC(=O)CNC(=O)[C@H](CCCNC(=N)N)NC(=O)[C@@H](Cc2ccccc2)NC(=O)CSC[C@@H](C(=O)NCC(N)=O)NC(=O)[C@H](CCCNC(=N)N)NC(=O)[C@H](CO)NC(=O)[C@H](Cc2ccc(-c3ccccc3)cc2)NC(=O)[C@@H]1Cc1ccccc1` [G9066] ({CH2CO}-[dF]RG[Bip][NMeF][Bip]SRCG-NH2; thioether N-9), the 50% inhibitory concentration (IC50) on E. coli Lgt is 240 nM. In addition, the EC50 in “in vitro” (293T), in the series “in vitro” (Hela) and in the series “in vitro” (HepG2) was > 100 µM each time. Moreover, in the series on PA14 imp4213, the MIC stood at 6.3 µM.

As for `CCCCCC[C@H]1OC(=O)CNC(=O)[C@H]([C@H](C)O)NC(=O)[C@H](CO)NC(=O)[C@H]([C@H](C)CC)NC(=O)[C@H](CC(C)C)N(C)C(=O)[C@@H]1C` [Globomycin], the EC50 in the series “in vitro” (293T), in “in vitro” (Hela) and in “in vitro” (HepG2) was > 100 µM throughout. Moreover, the MIC in the series with PA14 imp4213 came to 50 µM.

In the case of `CN[C@H](CC(C)C)C(=O)N[C@H]1C(=O)N[C@@H](CC(N)=O)C(=O)N[C@H]2C(=O)N[C@H]3C(=O)N[C@H](C(=O)N[C@H](C(=O)O)c4cc(O)cc(O)c4-c4cc3ccc4O)[C@H](O)c3ccc(c(Cl)c3)Oc3cc2cc(c3O[C@@H]2O[C@H](CO)[C@@H](O)[C@H](O)[C@H]2O[C@H]2C[C@](C)(N)[C@H](O)[C@H](C)O2)Oc2ccc(cc2Cl)[C@H]1O` [Vancomycin], the EC50 in the series “in vitro” (293T), in “in vitro” (Hela) and in “in vitro” (HepG2) was > 100 µM each time. Moreover, the MIC in the series on PA14 imp4213 (Pseudomonas aeruginosa) came to 12.5 µM.
